Laboratory results: ChEMBL document CHEMBL3046860, “Photosynthetic Electron Transport Inhibitory and Herbicidal Activities of 2-(Fluorinated methyl-4-benzylamino-6-methyl)-1, 3, 5-triazines” (J Pestic Sci, 2000)

How the values were obtained:
Echinochloa crus-galli [1] = test: Pre-emergence herbicidal activity against Echinochloa crus-galli var. crus-galli at 400 g a.i./10a measured after 3 weeks by soil application test; assay type: functional
Echinochloa oryzicola [2] = test: Pre-emergence herbicidal activity against Echinochloa oryzicola at 400 g a.i./10a measured after 3 weeks by paddy application test; assay type: functional
Digitaria ciliaris [3] = test: Post-emergence herbicidal activity against Digitaria ciliaris at 400 g a.i./10a measured after 3 weeks by foliar application test; assay type: functional
Chenopodium album [4] = test: Post-emergence herbicidal activity against Chenopodium album at 400 g a.i./10a measured after 3 weeks by foliar application test; assay type: functional
Persicaria longiseta [5] = test: Pre-emergence herbicidal activity against Persicaria longiseta at 400 g a.i./10a measured after 3 weeks by soil application test; assay type: functional
[6] = test system: Schoenoplectiella juncoides; test: Pre-emergence herbicidal activity against Schoenoplectiella juncoides var. Hotarui Ohwi at 400 g a.i./10a measured after 3 weeks by paddy application test; assay type: functional
Digitaria ciliaris [7] = test: Pre-emergence herbicidal activity against Digitaria ciliaris at 400 g a.i./10a measured after 3 weeks by soil application test; assay type: functional
Echinochloa crus-galli [8] = test: Post-emergence herbicidal activity against Echinochloa crus-galli var. crus-galli at 400 g a.i./10a measured after 3 weeks by foliar application test; assay type: functional
Rotala indica [9] = test: Pre-emergence herbicidal activity against Rotala indica at 400 g a.i./10a measured after 3 weeks by paddy application test; assay type: functional
Pontederia vaginalis [10] = test: Pre-emergence herbicidal activity against Monochoria vaginalis at 400 g a.i./10a measured after 3 weeks by paddy application test; assay type: functional
Chenopodium album [11] = test: Pre-emergence herbicidal activity against Chenopodium album at 400 g a.i./10a measured after 3 weeks by soil application test; assay type: functional
[12] = test system: Amaranthus blitum subsp. oleraceus; test: Pre-emergence herbicidal activity against Amaranthus blitum subsp. Oleraceus at 400 g a.i./10a measured after 3 weeks by soil application test; assay type: functional
Persicaria longiseta [13] = test: Post-emergence herbicidal activity against Persicaria longiseta at 400 g a.i./10a measured after 3 weeks by foliar application test; assay type: functional
[14] = test system: Amaranthus blitum subsp. oleraceus; test: Pre-emergence herbicidal activity against Amaranthus blitum subsp. Oleraceus at 100 g a.i./10a measured after 3 weeks by soil application test; assay type: functional
Digitaria ciliaris [15] = test: Pre-emergence herbicidal activity against Digitaria ciliaris at 100 g a.i./10a measured after 3 weeks by soil application test; assay type: functional
Chenopodium album [16] = test: Pre-emergence herbicidal activity against Chenopodium album at 100 g a.i./10a measured after 3 weeks by soil application test; assay type: functional
Echinochloa crus-galli [17] = test: Pre-emergence herbicidal activity against Echinochloa crus-galli var. crus-galli at 100 g a.i./10a measured after 3 weeks by soil application test; assay type: functional
[18] = target: Photosystem II D1 protein (psbA) (Spinacia oleracea); test: Inhibition of photosynthetic electron transport activity in Spinacia oleracea thylakoids assessed as inhibition of oxygen release
Chenopodium album [19] = test: Pre-emergence herbicidal activity against Chenopodium album at 800 g a.i./10a measured after 3 weeks by soil application test; assay type: functional
Rotala indica [20] = test: Pre-emergence herbicidal activity against Rotala indica at 800 g a.i./10a measured after 3 weeks by paddy application test; assay type: functional
Echinochloa oryzicola [21] = test: Pre-emergence herbicidal activity against Echinochloa oryzicola at 800 g a.i./10a measured after 3 weeks by paddy application test; assay type: functional
[22] = test system: Schoenoplectiella juncoides; test: Pre-emergence herbicidal activity against Schoenoplectiella juncoides var. Hotarui Ohwi at 800 g a.i./10a measured after 3 weeks by paddy application test; assay type: functional
Pontederia vaginalis [23] = test: Pre-emergence herbicidal activity against Monochoria vaginalis at 800 g a.i./10a measured after 3 weeks by paddy application test; assay type: functional
Digitaria ciliaris [24] = test: Pre-emergence herbicidal activity against Digitaria ciliaris at 800 g a.i./10a measured after 3 weeks by soil application test; assay type: functional
Echinochloa crus-galli [25] = test: Pre-emergence herbicidal activity against Echinochloa crus-galli var. crus-galli at 800 g a.i./10a measured after 3 weeks by soil application test; assay type: functional

Row | Compound | Activity (Echinochloa crus-galli [1]) | Activity (Echinochloa oryzicola [2]) | Activity (Digitaria ciliaris [3]) | Activity (Chenopodium album [4]) | Activity (Persicaria longiseta [5]) | Activity [6] | Activity (Digitaria ciliaris [7]) | Activity (Echinochloa crus-galli [8]) | Activity (Rotala indica [9]) | Activity (Pontederia vaginalis [10]) | Activity (Chenopodium album [11]) | Activity [12] | Activity (Persicaria longiseta [13]) | also measured
1 | Cc1nc(CF)nc(NCc2ccc(Cl)cc2)n1 | 3% | 5% | 4% | 6% | 4% | 4% | 3% | 4% | 6% | 5% | 5% | 4% | 6% | –
2 | Cc1nc(NCc2ccc([N+](=O)[O-])cc2)nc(C(F)F)n1 | 4% | 5% | 5% | 6% | 5% | 5% | 4% | 4% | 6% | 5% | 5% | 5% | 6% | –
3 | Cc1nc(NCc2ccc(Br)cc2)nc(C(F)(F)F)n1 | 5% | 4% | 6% | 6% | – | 6% | 5% | 4% | 5% | 5% | 5% | 5% | 6% | –
4 | Cc1nc(NCc2ccc(Cl)cc2)nc(C(F)F)n1 | 4% | 5% | 6% | 6% | 6% | 6% | 5% | 6% | 6% | 6% | 6% | 5% | 6% | –
5 | CCNc1nc(Cl)nc(NCC)n1 [SIMAZINE] | – | – | – | – | – | – | – | – | – | – | – | – | – | Activity [14]: 5%; Activity (Digitaria ciliaris [15]): 3%; Activity (Chenopodium album [16]): 2%; Activity (Echinochloa crus-galli [17]): 2%
6 | Cc1nc(NCc2cccc(Cl)c2)nc(C(F)F)n1 | 4% | 4% | 4% | 6% | 5% | 5% | 4% | 3% | 5% | 5% | 5% | 4% | 6% | –
7 | Cc1nc(NCc2ccccc2)nc(C(F)F)n1 | 5% | 4% | 4% | 6% | 6% | 5% | 4% | 3% | 5% | 6% | 6% | 4% | 6% | –
8 | Cc1nc(NCc2ccc([N+](=O)[O-])cc2)nc(C(F)(F)F)n1 | – | – | – | – | – | – | – | – | – | – | – | – | – | pI50 [18]: 7.16
9 | Cc1nc(NCc2ccc(Br)cc2)nc(C(F)F)n1 | 4% | 6% | 6% | 6% | 6% | 6% | 5% | 6% | 6% | 6% | 6% | 5% | 6% | –
10 | Cc1nc(NCc2ccc(Cl)cc2)nc(C(F)(F)F)n1 | 3% | 6% | 6% | 6% | – | 6% | 5% | 4% | 6% | 6% | 5% | 6% | 6% | –
11 | Cc1nc(C)nc(NCc2ccccc2)n1 | – | – | 0% | 0% | – | – | – | 0% | – | – | – | – | 0% | Activity (Chenopodium album [19]): 0%; Activity (Rotala indica [20]): 1%; Activity (Echinochloa oryzicola [21]): 3%; Activity [22]: 0%; Activity (Pontederia vaginalis [23]): 6%; Activity (Digitaria ciliaris [24]): 0%; Activity (Echinochloa crus-galli [25]): 0%
12 | Cc1nc(CF)nc(NCc2ccccc2)n1 | 1% | 0% | 1% | 6% | 2% | 0% | 1% | 0% | 0% | 0% | 5% | 4% | 4% | –
13 | Cc1nc(CF)nc(NCc2ccc(Br)cc2)n1 | 4% | 5% | 5% | 6% | 5% | 5% | 4% | 4% | 6% | 5% | 5% | 5% | 6% | –
14 | Cc1nc(NCc2cccc(Cl)c2)nc(C(F)(F)F)n1 | – | – | – | – | – | – | – | – | – | – | – | – | – | pI50 [18]: 7.21
15 | Cc1nc(NCc2ccccc2)nc(C(F)(F)F)n1 | 2% | 3% | 4% | 6% | – | 0% | 3% | 3% | 4% | 6% | 6% | 4% | – | –
16 | Cc1ccc(CNc2nc(C)nc(C(F)(F)F)n2)cc1 | – | – | – | – | – | – | – | – | – | – | – | – | – | pI50 [18]: 6.74
17 | Cc1ccc(CNc2nc(C)nc(C(F)F)n2)cc1 | 3% | 4% | 4% | 6% | 5% | 5% | 4% | 4% | 5% | 5% | 5% | 4% | 6% | –
